Assay results as given in article PMC4449299 (Developmental cell, 2015).

B1: anillin-homology domain (AHD) of human anillin (712–981) (domain or fragment, UniProt Q9NQW6 712-981, looked up)
chain: CQVNIKQKMQELNNEINMQQTVIYQASQALNCCVDEEHGKGSLEEAEAERLLLIATGKRTLLIDELNKLKNEGPQRKNKASPQSEFMPSKGSVTLSEIRLPLKADFVCSTVQKPDAANYYYLIILKAGAENMVATPLASTSNSLNGDALTFTTTFTLQDVSNDFEINIEVYSLVQKKDPSGLDKKKKTSKSKAITPKRLLTSITTKSNIHSSVMASPGGLSAVRTSNFALVGSYTLSLSSVGNTKFVLDKVPFLSSLEGHIYLKIKCQVN

Tests used:
[1] = target: T1, Mid1 (C-terminal domain, 579-920) (Schizosaccharomyces pombe, UniProt P78953); assay: SPR, L1 chip, liposomes; type: binding; conditions: PI(4,5)P2 vesicles; dimeric Mid1; given as 'up to'; room temperature
T1 sequence (P78953 579-920): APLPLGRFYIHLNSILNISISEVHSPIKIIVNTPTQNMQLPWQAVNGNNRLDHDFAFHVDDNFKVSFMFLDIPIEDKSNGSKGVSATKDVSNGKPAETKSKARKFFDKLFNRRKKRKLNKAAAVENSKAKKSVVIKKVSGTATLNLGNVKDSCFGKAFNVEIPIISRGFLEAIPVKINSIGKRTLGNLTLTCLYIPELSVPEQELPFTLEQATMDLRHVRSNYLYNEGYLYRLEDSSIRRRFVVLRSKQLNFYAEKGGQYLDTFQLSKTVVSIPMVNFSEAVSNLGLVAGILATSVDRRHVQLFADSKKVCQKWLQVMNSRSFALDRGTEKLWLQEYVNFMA

AHD-PH + RhoA* = AHD-PH + RhoA* (Homo sapiens, UniProt Q9NQW6); assay: SPR, L1 chip, liposomes; type: binding; conditions: PI(4,5)P2 vesicles; with lipid-modified RhoA; room temperature
[2] = target: T2, AHD (anillin-homology domain of anillin, 712-981) (Homo sapiens, UniProt Q9NQW6); assay: SPR, L1 chip, liposomes; type: binding; conditions: PI(4,5)P2 vesicles; room temperature
T2 sequence (Q9NQW6 712-981): B1 chain

RhoA(181)-Q63L = RhoA(181)-Q63L (UniProt P61586 1-181, Q63L); assay: ITC
Sequence of RhoA(181)-Q63L (P61586 1-181 Q63L): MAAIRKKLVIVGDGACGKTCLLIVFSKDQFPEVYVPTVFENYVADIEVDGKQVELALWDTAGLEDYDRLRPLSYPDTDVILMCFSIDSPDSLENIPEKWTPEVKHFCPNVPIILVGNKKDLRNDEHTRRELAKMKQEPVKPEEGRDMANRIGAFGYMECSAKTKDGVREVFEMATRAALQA

Sequence of AHD-PH + RhoA* (Q9NQW6 712-1124): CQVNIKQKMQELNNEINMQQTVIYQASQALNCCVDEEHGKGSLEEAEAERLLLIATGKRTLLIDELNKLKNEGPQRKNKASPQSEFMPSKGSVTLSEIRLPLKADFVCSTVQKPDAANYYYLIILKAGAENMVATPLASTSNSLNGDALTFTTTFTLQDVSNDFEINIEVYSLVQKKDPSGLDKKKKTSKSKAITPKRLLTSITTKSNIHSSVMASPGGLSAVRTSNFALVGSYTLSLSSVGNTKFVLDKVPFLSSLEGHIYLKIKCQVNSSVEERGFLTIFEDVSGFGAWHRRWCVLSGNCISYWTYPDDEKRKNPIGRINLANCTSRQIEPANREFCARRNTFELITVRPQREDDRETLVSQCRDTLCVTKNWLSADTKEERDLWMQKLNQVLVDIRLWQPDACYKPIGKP
Sequence of AHD-PH + RhoA* (P61586 1-190 partner): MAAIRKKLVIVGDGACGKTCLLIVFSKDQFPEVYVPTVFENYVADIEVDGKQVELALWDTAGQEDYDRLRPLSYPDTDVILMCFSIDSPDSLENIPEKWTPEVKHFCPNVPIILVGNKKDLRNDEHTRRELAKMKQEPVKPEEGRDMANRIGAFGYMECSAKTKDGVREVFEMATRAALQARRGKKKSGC

| Molecule | Kd [1] | Kd (AHD-PH + RhoA*) | Kd [2] | dH (RhoA(181)-Q63L) |
| --- | --- | --- | --- | --- |
| PI(4,5)P2 | 120 nM | ~280 nM | ~14000 nM | – |
| B1 | – | – | – | 3.97 kcal/mol |
